The results in this text go back to patent EP4029501A1, “COMBINATION OF POLYAROMATIC UREA DERIVATIVES AND GLUCOCORTICOID OR HDAC INHIBITOR FOR THE TREATMENT OF DISEASES OR CONDITIONS ASSOCIATED WITH MUSCLE CELLS AND/OR SATELLITE CELLS” (Anagenesis Biotechnologies, priority 2021, dated 2022).

Like-named read-outs stand apart in the source and are kept apart here. Bounds are passed on as bounds.

Assay [1] deals with muscle progenitors derived from DMD hiPSC. Nature of the assay: Myotube assay: total myotube area per well (alpha-actinin staining). Format: cell-based, human. The conditions noted are these: for Emax / EC50: Homo sapiens, Myotube. The method, boiled down: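 DMD hiPSC-derived muscle progenitors (NCRM-1 background) plated at 3500 cells/well in K5 medium with 5 µM Y-27632, then exposed to compound at 1.5 nM–30 µM for 3 days at 37°C. Cells fixed on day 7, alpha-actinin-immunostained and total myotube area per well quantified; duplicates averaged, EC50 and normalized myotube area derived.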

For assay [2], the system named is Pax7-positive cells. Nature of the assay: Myotube assay: Pax7-positive (satellite-like) cell quantification. To be noted: for Pax7: comparative compounds, effect on pool of Pax7-positive cells. On the set-up: key to Pax7: (-) : Depletes the pool of cells, while positively affects the myotubes; (+) : Maintains or increases the pool of cells, with at least 1 of the highest concentration known to be cytotoxic; (++) Maintains or increases the pool of cells, without any toxicity. Format: cell-based, human. From the text: The efficacy of said compound for use in treating, ameliorating, delaying, curing and/or preventing a disease or condition associated with muscle cells and/or satellite cells is positively correlated with the generation of myotubes (i.e. the increase of the area occupied by myotubes on the assay) and/or satellite cells (i.e. the increase of the number of satellite cells) in the assay after adding said compound. The generation of myotubes by the addition of said compound is expressed as the EC50 value, the concentration of said compound that corresponds with the half-maximal generation of myotubes, and the MA (normalized myotube area) value, the normalized area occupied by generated myotubes on the assay. […] Since muscle cells are formed from myotubes during myogenesis, the generation of myotubes in the assay is a good indicator of the ability of said compound to induce the formation of functional muscle cells in vivo. The number of satellite cells is measured as the percentage of Pax7 positive cells, relative to the total number of cells in the assay, as shown in Figure 3. The percentage of Pax7 is a good indicator of the ability of said compound to induce the formation of satellite cells which are able to play a role in muscle repair and regeneration in vivo.
DMD human induced pluripotent stem cells (hereafter "DMD hiPSC"), generated from the NCRM-1 hiPSC WT cell line by gene editing, or WT human induced pluripotent stem cells (hereafter "WT hiPSC"), being NCRM-1 hiPSC wt cell line, have been differentiated according to Chal et al. 2015, 2016, to produce muscle progenitors (hereafter "hMP"). The hMP population contains satellite-like cells (i.e Pax7-positive cells) and satellite cells' progenies (i.e. Myogenin-positive cells).
Figure 1 provides an example of a Myotube assay workflow. At day 0, hMP are thawed and 3.1 million cells are plated into a T75-flask coated with hESC-qualified Matrigel™ (Corning) in SkGM proliferating medium (PromoCells), supplemented with 5 µM Y-27632 (Tocris Bioscience). On day 2, SkGM proliferating medium is refreshed. On day 4, hMP are harvested and transferred into a 384-well plate coated with collagen type I at a density of 3500 cells/well in a DMEM-based medium, containing 5% of knockout serum replacement (Gibco), 1% PenStrep (Gibco), 1% MEM NEAA (Gibco) and 0.1 mM 2-mercaptoethanol (Gibco) (hereafter "K5 medium") and 5 µM Y-27632. Compounds to be tested are then added in the medium and incubated for 3 days at 37°C. On day 7, cells are fixed and immunostained. For example, myotubes (alpha-actinin staining) and satellite-like (Pax7 staining) cells can be analyzed for total myotube area per well or Pax7-positive cell quantification.
DMD hMP were put in the Myotube assay according to the workflow described in Example 2.1. In particular, compound (i) was added at concentrations ranging from 1.5 nM to 30 µM, starting from day 4. hMP were cultivated for three more days in presence of compound (i), then fixed and analyzed for percentage of Pax7-positive cells and nuclei number. Duplicates of each condition were averaged.
(-) : Depletes the pool of cells, while positively affects the myotubes; (+) : Maintains or increases the pool of cells, with at least 1 of the highest concentration known to be cytotoxic; and (++) Maintains or increases the pool of cells, without any toxicity.

The mark [3] stands for this setting: 72 h, comparative compounds, same assay as Table 3, NA: non active, read-out: MA.
Setting [4] is: comparative compounds, same assay as Table 3, NA: non active.

Take `CC(C)n1nc(C(C)(C)C)cc1NC(=O)Nc1ccc(Oc2ccnc3[nH]c(=O)cnc23)cc1F` [(i), 1-(3-(tert-butyl)-1-isopropyl-1H-pyrazol-5-yl)-3-(2-fluoro-4-((3-oxo-3,4-dihydropyrido[2,3-b]pyrazin-8-yl)oxy)phenyl)urea]: the myotube surface result in assay [1] (DMD hMP, 10 increasing concentrations 1.5 nM to 30 µM, 3 days (figure 2)) is on record as “dose-dependent increase of myotube surface”. In addition, the Emax in assay [1] (72 h, efficacy, MA = normalized Myotube Area, 3 days incubation, DMD or WT cell source not given) lay in the range of 50 to 75%. Moreover, in assay [1] (72 h, myogenic activity, half-maximal generation of myotubes, 10 points dose-response 1.5 nM to 30 µM, 3 days, DMD or WT cell source not given), the EC50 fell in the range of 1000 to 5000 nM. The “percentage of Pax7-positive cells” value in assay [2] (DMD hMP, 10 increasing concentrations 1.5 nM to 30 µM, 3 days (figure 3)) is recorded as “dose-dependent increase percentage of Pax7-positive cells”.
As for `Cc1ccc(-n2nc(C(C)(C)C)cc2NC(=O)Nc2ccc(OCCN3CCOCC3)c3ccccc23)cc1` [BIRB-796], the Emax in assay [1] (setting [3]) is ≥ 75%. For the same compound, the EC50 in assay [1] (setting [4]) was ≥ 5000 nM. Moreover, the Pax7 entry in assay [2] is “++”.
On to `CC(C)(C)c1cc(NC(=O)Nc2ccc(Oc3ccnc4[nH]c(=O)cnc34)cc2F)n(-c2ccccc2)n1` [CCT196969, reference compound], for which, in assay [1] (setting [4]), the EC50 is 500 to 1000 nM and the MA result is “++ (++: 50% ≤ MA <75%)”. The Pax7 result in assay [2] is listed as “+”.
Turning to `CNC(=O)c1cc(Oc2ccc(NC(=O)Nc3cc(C(C)(C)C)nn3-c3ccc4ncccc4c3)c(F)c2)ccn1` [Rebastinib, reference compound], the EC50 in assay [1] (setting [4]) lay within 1000 to 5000 nM. For the same compound, in assay [2], the Pax7 result is recorded as “+”.
As for `CNC(=O)c1cc(Oc2ccc(NC(=O)Nc3ccc(Cl)c(C(F)(F)F)c3)cc2)ccn1` [Sorafenib], the Emax in assay [1] (setting [3]) was in the range of 25 to 50%. Moreover, the EC50 in assay [1] (setting [4]) is ≥ 5000 nM. Besides, in assay [2], the Pax7 entry was “++”.
